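All cell lines were grown in 96-well plates and treated with compound for 48 hours. TGI denotes the concentration required for complete inhibition of growth.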 Some results are limits rather than exact numbers.

Some test systems named below: 786-0 renal; COLO 205 colon; DLD-1 colon; DMS 114 small cell lung; DMS 273 small cell lung; HOP-92 NSCLC; HT29 colon; KM20L2 colon; LOX IMVI melanoma; LXFL 529 NSCLC; M19-MEL melanoma; MCF7 breast; RXF-631 renal; SK-MEL-5 melanoma; SK-OV-3 ovarian; SNB-78 CNS; XF 498 CNS; HOP-18 NSCLC.
Common to all, as to assay: NCI tumour cell line growth inhibition, 48 h

`COC1=C(N=[N+]=[N-])C(=O)c2ncccc2C1=O`: the TGI in the test on 786-0 renal was 16.3 µM; in the test on COLO 205 colon it was 6.35 µM; in the test on DLD-1 colon, 3.14 µM; in the test with DMS 114 small cell lung it was 19.6 µM; with DMS 273 small cell lung, 25.7 µM; with HOP-92 NSCLC, 2.56 µM. Besides, the TGI was 33 µM in the test with HT29 colon; 33 µM in the test with KM20L2 colon; 7.78 µM in the test with LOX IMVI melanoma; 3.15 µM with LXFL 529 NSCLC; 3.8 µM in the test with M19-MEL melanoma; 3.41 µM with MCF7 breast. The TGI is 29.9 µM in the test with RXF-631 renal; 23.4 µM in the test with SK-MEL-5 melanoma; 28.5 µM in the test on SK-OV-3 ovarian; 12.7 µM with SNB-78 CNS; 16.4 µM in the test with XF 498 CNS.
Turning to `O=C1CSC(/C(=C\c2ccc(Cl)cc2)c2nc3ccccc3[nH]2)=N1`, the TGI was 26.4 µM in the test with 786-0 renal; 36.4 µM in the test on COLO 205 colon; 32.5 µM in the test with DLD-1 colon; 37.6 µM in the test with DMS 273 small cell lung; 25.1 µM with HOP-92 NSCLC; 46.5 µM in the test on HT29 colon. Moreover, the TGI came to 52.1 µM with KM20L2 colon; 32.4 µM with LOX IMVI melanoma; 35.2 µM with LXFL 529 NSCLC; 28.8 µM in the test on M19-MEL melanoma; 28.7 µM in the test on MCF7 breast; 24.6 µM in the test with SK-MEL-5 melanoma. Further, the figures for the TGI in the test on SK-OV-3 ovarian, with SNB-78 CNS and in the test with XF 498 CNS were 24.1 µM, above 100 µM and 3.01 µM, respectively.
For the compound `Cn1ccn2c3nc4ccccc4nc3c(=O)c(C#N)c12`, the TGI in the test on 786-0 renal was above 89.9 µM; in the test with COLO 205 colon, above 100 µM; in the test on DLD-1 colon, above 100 µM; in the test with DMS 114 small cell lung, above 100 µM; in the test on DMS 273 small cell lung, above 100 µM; in the test with HOP-18 NSCLC it was above 100 µM. Also, the TGI in the test with HOP-92 NSCLC, with HT29 colon, in the test on LOX IMVI melanoma, in the test with LXFL 529 NSCLC, with M19-MEL melanoma and in the test with MCF7 breast was above 100 µM throughout. In addition, the TGI with SK-MEL-5 melanoma is above 13.4 µM; in the test on SK-OV-3 ovarian, above 100 µM; with SNB-78 CNS, above 100 µM; with XF 498 CNS it was above 100 µM.
`CCOc1ccc(/C=C(\Cl)c2ccc(OC)c(OC)c2)cc1`: the TGI in the test with 786-0 renal, in the test with COLO 205 colon, in the test on DLD-1 colon, in the test on DMS 114 small cell lung, in the test with DMS 273 small cell lung and in the test with HOP-18 NSCLC was above 100 µM throughout. For the same compound, the TGI is above 100 µM in the test on HOP-92 NSCLC; 40.9 µM in the test on HT29 colon; 40.1 µM in the test with KM20L2 colon; above 100 µM with LXFL 529 NSCLC; above 100 µM with M19-MEL melanoma; above 100 µM with SK-MEL-5 melanoma. Besides, the TGI in the test with SK-OV-3 ovarian, in the test on SNB-78 CNS and with XF 498 CNS was above 100 µM throughout.
